Results reported in patent US20070042962A1, “Peptide dependent upregulation of telomerase expression” (priority 2002, published 2007).
Ends that are not written are not given here.

Columns and labels:
telomerase [1] = experiment: TRAP telomerase assay in primary cortical rat brain cell cultures; format: cell-based; conditions: for upregulation of expression of telomerase (TRAP): primary rat brain cortical cultures, 1-70 μg/ml
Method: (§1) Telomerase activity was measured in total cellular lysates using a telomeric repeat amplification protocol (TRAP). DNA oligomer “TS” 18-mer (AATCCGTCGAGCAGAGTT) (SEQ ID NO:30) was end-labeled with P^32 in a 20 μl reaction containing 50 mM Tris-HCl (pH 7.5), 10 mM MgCl2, 0.1 mM EDTA, 1 mM DTT, 1 pmol TS primer, 1 pmol [γ-^32P]-ATP (4,500 Ci/mmol), and 5 U polynucleotide kinase (Ambion). The reaction was incubated for 20 minutes at 37° C., and then stopped by incubating for 5 minutes at 85° C. Labeled TS oligomer was stored at −20° C. until use.
(§2) Telomerase-induced hexamer extensions to the TS primer were performed in a 50 μl reaction volume containing 20 mM Tris-HCl (pH 8.3), 1.5 mM MgCl2, 63 mM KCl, 0.05% Tween-20, 1 mM EGTA, 50 μM dNTPs, 0.1 pmol ^32P-labeled TS primer, 1 pmol reverse primer RP (CTAACCCTAACCCTAACC) (SEQ ID NO:31), 1.0 μg cell lysate, and 2 U Taq polymerase (Ambion). The reaction was incubated for 30 minutes at 30° C. Hexamer extensions were then amplified by PCR using the following program: denaturation at 94° C. for 30 seconds, annealing at 59° C. for 30 seconds, 27 cycles denaturation/annealing. Radiolabeled ladders were separated by electrophoresis on 10% polyacrylamide gels, dried onto 3 MM paper, and visualized by autoradiography with Kodak X-Omat AR film. Exposure times averaged 4 hours at 25° C. Ladders were quantitated by excision from the gel, and counting in a Bench Count (Beckman).
The ability of representative peptide compounds described herein to upregulate telomerase was also tested in primary cortical cultures of rat brain using the TRAP telomerase assay described above.
[…] […] Negative control cultures were not exposed to a peptide compound during the growth period.
In this case, the P^32-labeled DNA precursors were incorporated into the series of hexamer base pairs showing the upregulation of the telomerase. The total radioactivity corresponding to base pairs ladders from 50 to 80 bp was measured by counting the particular region of the gel. […] The highest concentrations of peptide compound tested produced increasingly less upregulation of the enzyme, as is typically observed at some point along most dose response curves.

telomerase [2] = experiment: TRAP telomerase assay in mouse neuroblastoma cells (NB2a/DL); format: cell-based; conditions: CMX-1 100 μg/ml or CMX-3 70 μg/ml, 6 and 24 hours
Method: Telomerase activity was assayed in human cells and tumors by telomeric repeat amplification protocol (TRAP) (see, Piatsyzek, Methods in Cell Science, 17:1 (1995)). Whole cell lysates were prepared from approximately 10^6 Nb2a cells. Cells were washed once with PBS, repelleted, and 20 μl of lysate buffer (10 mM Tris-HCl pH 7.5, 1 mM MgCl2, 1 mM EGTA, 0.1 mM benzamidine, 5 mM β-mercaptoethanol, 0.5% CHAPS, 10% glycerol) was added directly to the washed pellets. The suspensions were incubated on ice for 30 minutes to allow cell swelling and lysis. Lysates were cleared by centrifugation at 12,000×g for 20 minutes at 4° C. Total protein concentration was determined for the cleared supernatant using a Coomassie Reagent protocol (Pierce). Supernatants were stored at −70° C.
Telomerase activity was measured in total cellular lysates using a telomeric repeat amplification protocol (TRAP). […]
Telomerase-induced hexamer extensions to the TS primer were performed in a 50 μl reaction volume containing 20 mM Tris-HCl (pH 8.3), 1.5 mM MgCl2, 63 mM KCl, 0.05% Tween-20, 1 mM EGTA, 50 μM dNTPs, 0.1 pmol ^32P-labeled TS primer, 1 pmol reverse primer RP (CTAACCCTAACCCTAACC) (SEQ ID NO:31), 1.0 μg cell lysate, and 2 U Taq polymerase (Ambion). […] Ladders were quantitated by excision from the gel, and counting in a Bench Count (Beckman). […]

[3] = test system: superoxide dismutase (SOD); conditions: rat brain cells; same nanogram amounts (1 ng/ml, 24 h); data not shown
Method: (§3) Primary cortical rat brain cell cultures were prepared as described above in Example 4 except that cells were cultured following a 24-hour exposure to 0 or 1 nanograms (ng)/ml of CMX-4. […] Positive control (“Pos”) represents the analysis of 1 μg of protein from a total cell lysate of immortalized HeLa cells.
(§4) In addition, the levels of antioxidative enzymes superoxide dismutase (SOD), catalase (CAT), and glutathione peroxidase (GPX) were determined using a standard immunoblotting protocol (see, Adams et al., J. Cell. Biochem., 77: 221-233 (2000)).

[4] = test system: glutathione peroxidase (GPX); conditions: rat brain cells; same nanogram amounts (1 ng/ml, 24 h); data not shown
Method: as §3, §4

catalase (CAT) = experiment: Immunoblotting of catalase in primary cortical rat brain cell cultures; format: cell-based; conditions: same nanogram amounts (1 ng/ml, 24 h), data not shown
telomerase [5] = experiment: TRAP telomerase assay of tissue homogenates from old mice orally treated for 30 days; format: in vivo, mouse
Method: as §1, §2
The ability of peptide compounds described herein to upregulate telomerase in old and young mice was also studied. Here, the old mice (17 months old) were treated daily by gavage for 30 days with an oral dose of peptide CMX-2 in saline at doses of 0, 0.03, 0.3, and 3.3 mg of peptide compound per kilogram (kg) of body weight. Control animals received saline only without peptide compound. Animals were sacrificed by decapitation after 30 days and dissected to isolate the brain, heart, and liver, which was frozen at −70° C. for subsequent analysis. […]
Telomerase activity was then measured in the cytoplasmic protein fraction of tissue homogenates.

Q: What does the source list for Asp Gly [CMX-3]?
A: upregulation of expression of telomerase (TRAP) (telomerase [1]): upregulated; upregulation of telomerase over control at dose of maximum effect (telomerase [1]; primary rat cortical cultures, 1 μg/ml (maximum effect)): 2 fold; upregulation of telomerase over control levels (TRAP) (telomerase [2]): upregulated

Q: Which “upregulation of expression of telomerase (TRAP)” value (telomerase [1]) does the source give for DGDGDFAIDAPE [CMX-1] here?
A: upregulated

Q: And the “increase in the level of telomerase expression relative to control levels” value (telomerase [1]; primary rat cortical cultures, 10 μg/ml)?
A: greater than 4 fold

Q: What about the “shape of dose-response curve of telomerase upregulation” value (telomerase [1]; primary rat cortical cultures, 1, 10, 70 μg/ml) of the same substance?
A: inverted U-shape

Q: And the “upregulation of telomerase over control levels (TRAP)” value (telomerase [2])?
A: upregulated

Q: “R1 Asp Gly, wherein R1 is the iodine-substituted thyronine amino terminal capping group, 3,5,3′-triiodothyronine [CMX-4]” was tested. Which “upregulation of telomerase (TRAP)” value (telomerase [1]; primary cortical rat brain cells, 1 ng/ml, 24-hour exposure) did it give?
A: effective at upregulating telomerase

Q: What about the “upregulation of superoxide dismutase (SOD) compared to untreated control cells” value [3] of the same substance?
A: upregulated

Q: What about the “upregulation of glutathione peroxidase (GPX) compared to untreated control cells” value [4] of the same substance?
A: upregulated

Q: What about the “upregulation of catalase (CAT) compared to untreated control cells” value (catalase (CAT)) of the same substance?
A: upregulated

Q: “[Ac] Asp Gly Glu Ala (Ac-DGEA; listed as Homo sapiens) [CMX-2]” was tested. Which “telomerase activity of brain tissue homogenates relative to untreated controls” value (telomerase [5]; 3.3 mg/kg body weight orally by gavage daily for 30 days, brain) did it give?
A: 3.2 fold

Q: What about the “upregulation of telomerase in brain tissue” value (telomerase [5]; oral daily for 30 days, brain) of the same substance?
A: upregulated

Q: And the “upregulation of telomerase in heart tissue” value (telomerase [5]; oral daily for 30 days, heart)?
A: upregulated
